Test results from ChEMBL document CHEMBL1121859, “Photochemical inactivation of the angiotensin receptor of rabbit aorta by N alpha-(2-nitro-5-azidobenzoyl)-[1-aspartic acid,5-isoleucine]angiotensin II” (1981).

Columns and labels:
Oryctolagus cuniculus [1] = species on record: Oryctolagus cuniculus; test: Compound was tested for the inhibition of nitroazidobenzoyl-angiotensin II induced contraction of rabbit aortic strips; assay type: functional; conditions: Aorta, read-out: ED50 (the source's name)
Oryctolagus cuniculus [2] = species on record: Oryctolagus cuniculus; test: Compound was tested for the inhibition of nitroazidobenzoyl-angiotensin II induced contraction of rabbit aortic strips; pD2 is the negative logarithm of ED50; assay type: functional, Aorta

Compound	EC50 (Oryctolagus cuniculus [1])	pD2 (Oryctolagus cuniculus [2])
CC[C@H](C)[C@H](NC(=O)[C@H](Cc1ccc(O)cc1)NC(=O)[C@@H](NC(=O)[C@H](CCCN=C(N)N)NC(=O)[C@H](CC(=O)O)NC(=O)c1cc(N=[N+]=[N-])ccc1[N+](=O)[O-])C(C)C)C(=O)N[C@@H](Cc1c[nH]cn1)C(=O)N1CCC[C@H]1C(=O)N[C@@H](Cc1ccccc1)C(=O)O	0.0604 µM	7.22
CC[C@H](C)[C@H](NC(=O)[C@H](Cc1ccc(O)cc1)NC(=O)[C@@H](NC(=O)[C@H](CCCNC(=N)N)NC(=O)[C@@H](N)CC(=O)O)C(C)C)C(=O)N[C@@H](Cc1cnc[nH]1)C(=O)N1CCC[C@H]1C(=O)N[C@@H](Cc1ccccc1)C(=O)O [ANGIOTENSIN II]	0.00363 µM	8.44
